We go through 28 compounds from US20060063785A1, “Substituted pyrazolo[1,5-a] pyrimidines and process for making same” (priority 2004, published 2006).

For one assay, the system named is 80S14 (p21-deficient) cells. The assay is described as follows: Determination of selectivity of compounds for p21-/- cells: IC50 in 80S14 cells (SRB). The format is cell-based, human. The note with it: 80S14 (p21-deficient) cells, 5 days at 37° C., SRB; read-out: IC50 for 80S14. The procedure:
• 1. 80S14 (p21-deficient) cells were cultured in RPMI 1640 medium (Gibco/Invitrogen Life technologies) supplemented with 10% fetal bovine serum (FBS, Gibco) and 10 μg/ml gentamycin (Gibco). Cells were maintained at 37° C. under 7% CO2. • 2. Cells were plated at 6×10^4/ml (0.2 ml/well; 12,000 cells/well) in 96-well microtiter plates (Falcon or Corning/Costar) and incubated at 37° C. overnight (18-24 hours). • 3. 2-5 μl of the test agent-[200 μg/ml stock in 20% DMSO/20 mM HEPES, pH 7.5 (Gibco)] was added to each well to achieve a final concentration of 2-5 μg/ml. Cells were incubated with the test compounds for 5 days at 37° C. • 4. Surviving cells were fixed with 50 μl 50% trichloroacetic acid (Sigma; 10% final concentration) for 1 hour at 4° C. • 5. Plates were rinsed twice with water (0.3 ml per wash using MRD8 robot), and allowed to dry. • 6. Sulforhodamine B (SRB) (Sigma; 0.4% in 1% acetic acid, 50 μl per well; MRD8 robot) was added and plates kept at room temperature for 10 minutes. • 7. Excess dye was removed by washing with 1% acetic acid (3 times, 0.3 ml per wash; MRD8 robot) and allowed to dry. • 8. The dye was solubilized in Tris base (Sigma; 10 mM, 150 μl per well). Plates were kept at room temperature for 30 minutes to allow the dye to diffuse. • 9. Absorbance was measured at 540 nm. • 10. The percentage of cells surviving drug treatment relative to control wells (no drug) was determined. • 11. The difference in % cell survival between the two cell lines was calculated. • 12. Compounds producing a difference score of >50 were considered to be selective for the p21-deficient cells and were evaluated further. Determination of Selectivity of Compounds for p21−/− Cells: • 1. 80S14 cells were cultured as described above. • 2. Cells were seeded in 96-well microtiter plates at 12,000 cells/well (either 0.15 ml/well of 8×10^4 cells/ml suspension, or 0.2 ml/well of 6×10^4 cells/ml suspension). Plates were incubated at 37° C. overnight (18-24 hours). • 3. Serial dilutions of the test agent were added to each well. Dilutions were prepared either in 40% DMSO/20% methanol/20 mM HEPES, pH 7.5 (Gibco) or directly in growth medium. One of two dose ranges were used: 5 pM to 50 μM or 170 pg/ml to 10 μg/ml. Cells were incubated with the test compounds for 5 days at 37° C. • 4. Surviving cells were fixed with 50 μl 50% trichloroacetic acid (Sigma; 10% final concentration) for 1 hour at 4° C. • 5. Plates were rinsed extensively in water, and allowed to dry. • 6. Sulforhodamine B (Sigma; 0.4% in 1% acetic acid, 70 μl per well) was added and plates kept at room temperature for 10 minutes. • 7. Excess dye was removed by washing 5 times with 1% acetic acid and plates were allowed to dry. • 8. The dye was solubilized in Tris base (Sigma; 10 mM, 150 μl per well). Plates were placed on a titer plate shaker (Lab Line Instruments) for 5 minutes to allow the dye to diffuse. • 9. Absorbance was measured at 560 nm.
10. The drug concentration which inhibits cell proliferation by 50% relative to untreated controls (IC50) was determined from cytotoxicity curves.
As a reminder, the IC50 is the point on the concentration scale where inhibition reaches its midpoint. `CCS(=O)(=O)Nc1cccc(-c2ccnc3c(C(=O)c4cccs4)cnn23)c1` [Example 21, N-{3-[-(thien-2-ylcarbonyl)pyrazolo[1,5-a]pyrimidin-7-yl]phenyl}ethanesulfonamide]: the 50% inhibitory concentration (IC50) was under 1 µM.

`COC(=O)CCC(=O)Nc1cccc(-c2ccnc3c(C(=O)c4cccs4)cnn23)c1` [Example 35, methyl 4-oxo-4-({3-[3-(thien-2-ylcarbonyl)pyrazolo[1,5-a]pyrimidin-7-yl]phenyl}anmino)butanoate]: the IC50 lay within 10 to 50 µM.

In the case of `O=C(c1cccs1)c1cnn2c(-c3cccc(NC(=O)C(Cl)(Cl)Cl)c3)ccnc12` [Example 38, 2,2,2-trichloro-N-{3-[3-(thien-2-ylcarbonyl)pyrazolo[1,5-a]pyrimidin-7-yl]phenyl} acetamide], the half-inhibitory concentration (IC50) was 1 to 10 µM.

In the case of `CC12CCC(C(=O)Nc3cccc(-c4ccnc5c(C(=O)c6cccs6)cnn45)c3)(OC1=O)C2(C)C` (stereo not shown) [Example 43], the half-inhibitory concentration (IC50) was under 1 µM.

For `COCCOCC(=O)Nc1cccc(-c2ccnc3c(C(=O)c4cccs4)cnn23)c1` [Example 49, 2-(2-methoxyethoxy)-N-{3-[3-(thien-2-ylcarbonyl)pyrazolo[1,5-a]pyrimidin-7-yl]phenyl} acetamide], the IC50 was in the range of 1 to 10 µM.

In the case of `NCC(=O)Nc1cccc(-c2ccnc3c(C(=O)c4cccs4)cnn23)c1` [Example 59, N-1--{3-[3-(thien-2-ylcarbonyl)pyrazolo[1,5-a]pyrimidin-7-yl]phenyl}glycinamide], the IC50 was in the range of 10 to 50 µM.

In the case of `C[C@H](N)C(=O)Nc1cccc(-c2ccnc3c(C(=O)c4cccs4)cnn23)c1` [Example 60, N-1-{3-[3-(thien-2-ylcarbonyl)pyrazolo[1,5-a]pyrimidin-7-yl]phenyl}-L-alaninamide], the IC50 fell in the range of 1 to 10 µM.

`CC(C)C[C@H](N)C(=O)Nc1cccc(-c2ccnc3c(C(=O)c4cccs4)cnn23)c1` [Example 61, N-1-{3-[3-(thien-2-ylcarbonyl)pyrazolo[1,5-a]pyrimidin-7-yl]phenyl}-L-leucinamide]: the half-maximal inhibitory concentration (IC50) was 10 to 50 µM.

For `CC[C@H](C)[C@H](N)C(=O)Nc1cccc(-c2ccnc3c(C(=O)c4cccs4)cnn23)c1` [Example 62, N-1-{3-[3-(thien-2-ylcarbonyl)pyrazolo[1,5-a]pyrimidin-7-yl]phenyl}-L-isoleucinamide], the half-maximal inhibitory concentration (IC50) lay within 1 to 10 µM.

For the compound `N[C@@H](CC1CCCCC1)C(=O)Nc1cccc(-c2ccnc3c(C(=O)c4cccs4)cnn23)c1` [Example 64, 3-cyclohexyl-N-1-{3-[3-(thien-2-ylcarbonyl)pyrazolo[1,5-a]pyrimidin-7-yl]phenyl}-L-alaninamide], the 50% inhibitory concentration (IC50) was 10 to 50 µM.

Consider `CC(C)[C@H](N)C(=O)Nc1cccc(-c2ccnc3c(C(=O)c4cccs4)cnn23)c1` [Example 65, N-1-{3-[3-(thien-2-ylcarbonyl)pyrazolo[1,5-a]pyrimidin-7-yl]phenyl}-L-valinamide], for which the half-maximal inhibitory concentration (IC50) lay in the range of 1 to 10 µM.

Regarding `O=C(COc1ccccc1)Nc1cccc(-c2ccnc3c(C(=O)c4cccs4)cnn23)c1` [Example 93, 2-phenoxy-N-{3-[3-(thien-2-ylcarbonyl)pyrazolo[1,5-a]pyrimidin-7-yl]pheriyl}acetamide], the half-inhibitory concentration (IC50) lay in the range of 1 to 10 µM.

Consider `CCCCCNC(=O)NCC(=O)Nc1cccc(-c2ccnc3c(C(=O)c4cccs4)cnn23)c1` [Example 118, N-2-[(pentylamino)carbonyl]-N-1-{3-[3-(thien-2-ylcarbonyl)pyrazolo[1,5-A]pyrimidin-7-yl]phenyl}glycinamide], for which the half-maximal inhibitory concentration (IC50) lay within 10 to 50 µM.

Regarding `CCNC(=O)NCC(=O)Nc1cccc(-c2ccnc3c(C(=O)c4cccs4)cnn23)c1` [Example 119, N-2-[(ethylamino)carbonyl]-N-1-{3-[3-(thien-2-ylcarbonyl)pyrazolo[1,5-a]pyrimidin-7-1yl]phenyl}glycinamide], the IC50 is 1 to 10 µM.

Staying with this assay, now noted: Cellular activity in 80S14 (p21-deficient) cells, SRB; class symbols; read-out: IC50 for 80S14.
On to “3-(3,5-Dimethylphenyl)-7-{3-[2-(2-piperidin-1-ylethyl)-2H-tetrazol-5-yl]phenyl}pyrazolo[1,5-a]pyrimidine [Example 388]”, for which the concentration for half-maximal inhibition (IC50) was in the range of 1 to 10 µM.

As to “3.5-Dinitro-N-{3-[3-(2-thienylcarbonyl)pyrazolo[1,5-a]pyrimidin-7-yl]phenyl}benzamide [Example 198]”, the IC50 lay in the range of 10 to 50 µM.

Still in this assay, the particulars now being: Homo sapiens, 80S14, 120 h, read-out: IC50 for 80S14 (μM).
Take `C=C(C)OC(=O)Nc1cccc(-c2ccnc3c(C(=O)c4cccs4)cnn23)c1` [Example 15, isopropenyl3-[3-(thien-2-ylcarbonyl)pyrazolo[1,5-a]pyrimidin-7-yl]phenylcarbamate]: the 50% inhibitory concentration (IC50) was under 1 µM.

The assay is the same for the next values; noted with them: Homo sapiens, 120 h; 80S14 (p21-deficient) cells, 5 days at 37° C., SRB; read-out: IC50 for 80S14.
On to `C[C@H](NC(=O)Nc1cccc(-c2ccnc3c(C(=O)c4cccs4)cnn23)c1)c1ccccc1` [Example 9, N-[(1S)-1-phenylethyl]-N′-{3-[3-(thien-2-ylcarbonyl)pyrazolo [1,5-a]pyrimidin-7-yl]phenyl}urea], for which the IC50 fell in the range of 1 to 10 µM.

As for `O=C(c1cccs1)c1cnn2c(-c3cccc(NC(=O)[C@@H]4CCCN4C(=O)C(F)(F)F)c3)ccnc12` [Example 41, N-{3-[3-(thien-2-ylcarbonyl)pyrazolo[1,5-a]pyrimidin-7-yl]phenyl}-1-(trifluoroacetyl)-L-prolinamide], the IC50 is 1 to 10 µM.

Turning to `O=C(c1cccs1)c1cnn2c(-c3cccc(NC(=O)C45CC6CC(CC(C6)C4)C5)c3)ccnc12` [Example 42, N-{3-[3-(thien-2-ylcarbonyl)pyrazolo[1,5-a]pyrimidin-7-yl]phenyl} adamantane-1-carboxamide], the IC50 was under 1 µM.

`C#CCCC(=O)Nc1cccc(-c2ccnc3c(C(=O)c4cccs4)cnn23)c1` [Example 45, N-{3-[3-(thien-2-ylcarbonyl)pyrazolo[1,5-a]pyrimidin-7-yl]phenyl}pent-4-ynamide]: the concentration for half-maximal inhibition (IC50) is under 1 µM.

With `CC(=O)OCC(=O)Nc1cccc(-c2ccnc3c(C(=O)c4cccs4)cnn23)c1` [Example 48, 2-oxo-2-({3-[3-(thien-2-ylcarbonyl)pyrazolo[1,5-a]pyrimidin-7-yl]phenyl}amino)ethyl acetate], the concentration for half-maximal inhibition (IC50) was 1 to 10 µM.

Turning to `O=C(Cc1cccs1)Nc1cccc(-c2ccnc3c(C(=O)c4cccs4)cnn23)c1` [Example 50, 2-thien-2-yl-N-{3-[3-(thien-2-ylcarbonyl)pyrazolo[1,5-a]pyrimidin-7-yl]phenyl}acetamide], the IC50 was under 1 µM.

As for `O=C(c1cccs1)c1cnn2c(-c3cccc(NC(=O)[C@@H]4CCCN4)c3)ccnc12` [Example 67, N-{3-[3-(thien-2-ylcarbonyl)pyrazolo[1,5-a]pyrimidin-7-yl]phenyl}-L-prolinamide], the IC50 lay within 1 to 10 µM.

In the case of `N[C@H](C(=O)Nc1cccc(-c2ccnc3c(C(=O)c4cccs4)cnn23)c1)C1CCCCC1` [Example 68, (2S)-2-amino-2-cyclohexyl-N-{3-[3-(thien-2-ylcarbonyl)pyrazolo[1,5-a]pyrimidin-7-yl]phenyl}ethanamide], the half-inhibitory concentration (IC50) lay within 1 to 10 µM.

Regarding `O=C(Nc1cccc(-c2ccnc3c(C(=O)c4cccs4)cnn23)c1)c1ccc(Cl)cc1` [Example 71, 4-chloro-N-{3-[3-(thien-2-ylcarbonyl)pyrazolo[1,5-a]pyrimidin-7-yl]phenyl}benzamide], the IC50 was 1 to 10 µM.

Turning to `CC(C)(C)C(=O)NCC(=O)Nc1cccc(-c2ccnc3c(C(=O)c4cccs4)cnn23)c1` [Example 114, 2,2-dimethyl-N-[2-oxo-2-({3-[3-(thien-2-ylcarbonyl)pyrazolo[1,5-a]pyrimidin-7-yl]phenyl}amino)ethyl]propanamide], the concentration for half-maximal inhibition (IC50) lay in the range of 1 to 10 µM.

For the compound `O=C(CNC(=O)C12CC3CC(CC(C3)C1)C2)Nc1cccc(-c2ccnc3c(C(=O)c4cccs4)cnn23)c1` [Example 116, N-[2-oxo-2-({3-[3-(thien-2-ylcarbonyl)pyrazolo[1,5-a]pyrimidin-7-yl]phenyl}amino)ethyl] adamantane-1-carboxamide], the IC50 fell in the range of 1 to 10 µM.
